One assay has as its system Plasmodium falciparum. As to the kind of experiment: Antimalarial activity against Plasmodium falciparum 3D7. It counts as functional, organism-based.
Another assay concerns Candida albicans. As to the kind of experiment: Antimicrobial activity against Candida albicans JCM1542 assessed as reduction in microbial growth up to 70 uM after 48 hrs. The following applies: dose microM <=70, time 48.0 hrs. It counts as functional, organism-based.
The test system of a further assay is Pyricularia oryzae. As to the kind of experiment: Antimicrobial activity against Pyricularia oryzae kita-1 assessed as reduction in microbial growth up to 70 uM after 48 hrs. It counts as functional, organism-based. The following applies: dose microM <=70, time 48.0 hrs.
In a further assay the test system is Aspergillus fumigatus. As to the kind of experiment: Antimicrobial activity against Aspergillus fumigatus Af293 assessed as reduction in microbial growth up to 70 uM after 48 hrs. In kind it is functional, organism-based. The following applies: dose microM <=70, time 48.0 hrs.
Another assay relates to Escherichia coli. As to the kind of experiment: Antimicrobial activity against Escherichia coli HO141 assessed as reduction in microbial growth up to 70 uM after 24 hrs. The following applies: dose microM <=70, time 24.0 hrs. In kind it is functional, organism-based.
The next assay deals with Staphylococcus aureus. As to the kind of experiment: Antimicrobial activity against Staphylococcus aureus 209 assessed as reduction in microbial growth up to 70 uM after 24 hrs. It counts as functional, organism-based. The settings on record: dose microM <=70, time 24.0 hrs.
The test system of the next assay is NRK. As to the kind of experiment: Cytotoxicity against rat NRK cells infected with ts25 T-class mutant of Rous sarcoma virus Prague strain assessed as reduction in cell viability up to 70 uM after 48 hrs by WST-8 assay. It counts as functional, cell-based. The following applies: dose microM <=70, time 48.0 hrs. In general terms: Formazan colour is commonly taken as a measure of viable cells.

In a further assay the test system is HL-60. In words: Cytotoxicity against human HL-60 cells assessed as reduction in cell viability up to 70 uM after 48 hrs by WST-8 assay. In kind it is functional, cell-based. The following applies: dose microM <=70, time 48.0 hrs.
For the next assay, the system named is HeLa. In words: Cytotoxicity against human HeLa cells assessed as reduction in cell viability up to 70 uM after 48 hrs by WST-8 assay. In kind it is functional, cell-based. The following applies: dose microM <=70, time 48.0 hrs.

Calls of active or inactive are those of the source. No cut-off for these calls is given here.

The source of these data is ChEMBL document CHEMBL4673303, “Heterologous Expression of the Biosynthetic Gene Cluster for Verticilactam and Identification of Analogues” (J Nat Prod, 2020).

As usually defined, the IC50 is the midpoint of a concentration-inhibition curve. Higher therefore signals lower potency. Molecule `C\C1=C/C=C\C=C\[C@H](C)CNC(=O)CC(=O)C[C@@H]2O[C@H]3[C@@H]4[C@@H](C=C[C@H]1[C@H]42)[C@@H](O)C[C@H]3O` returned an IC50 in the assay with Plasmodium falciparum of 12 µM. For the same molecule, the result in the assay on Candida albicans, in the assay on Pyricularia oryzae, in the assay on Aspergillus fumigatus, in the assay on Escherichia coli, with Staphylococcus aureus and in the assay on NRK was inactive. Also, the outcome in the assay on HL-60 and in the assay on HeLa was inactive.
